Data as given in patent US8022043B2, “Ceramide derivatives as modulators of immunity and autoimmunity” (Albert Einstein College of Medicine of Yeshiva University, priority 2004, dated 2011).

Assays:
[1] = test system: NK T cells; experiment: NK T cell activation screens (Example, FIG. 5 and Table 1); type: cell-based; settings: see Example
Excerpt: Using these methods, we produced more than 60 novel amino substituted analogues of KRN7000. These were screened in a functional assay that assessed the ability of the compounds to activate NK T cell hybridomas in the presence of various types of cells expressing CD1d, or in the presence of recombinant CD1d proteins bound to the tissue culture plate surface (FIG. 5).

[2] = test system: splenocytes from NZB/W F1 mice; experiment: Cytokine induction in vitro with splenocytes from NZB/W F1 mice; type: cell-based
[3] = test system: iNKT cells; experiment: In vitro cytokine modulation, murine cell assay system; type: cell-based; settings: for in vitro activity at modulating cytokines: murine cell assay system
Excerpt: The term iNKT cells, as used herein, mean the specific subset of CD1d-dependent T cells that expresses the invariant TCRα chain rearrangement consisting of Vα14-Jα18 in mice, and Vα24-Jα18 in humans. These cells are uniformly reactive to α-galactosylceramides presented by CD1d. These cells are also referred to as “Type 1” NKT cells, and the distinction between the different types of NKT cells and the nomenclature relating to this are summarized in the publication by Godfrey et al., Nat Rev Immunol. 2004 March; 4(3):231-7. Methods for determining cytokine production by iNKT cells in response to CD1d-presented glycolipids for determination of strong or weak agonist activity are described in Yu K O A, Im J S, Molano A, Dutronc Y, Illarionov P A, Forestier C, Fujiwara N, Arias I, Miyake S, Yamamura T, Chang Y-T, Besra G S, Porcelli S A, Modulation of CD1d-restricted NKT cell responses using N-acyl variants of α-galactosylceramides, Proc. Nat. Acad. Sci. (USA), 102:3383-8 (2005), see also Godfrey D I et al., Nat Rev Immunol. 2004 March; 4(3):231-7.

[4] = test system: NK T hybridoma DN32.D3; experiment: Murine NK T cell hybridoma stimulation assay (IL-2 release), RMA-S.mCD1d as APC; type: cell-based, mouse; settings: presented by RMA-S/CD1d cells
Experimental: FIG. 5. […] NK T hybridoma DN32.D3 was cultured with CD1d-transfected RMA-S cells in microtiter plate wells. Each ceramide-like glycolipid was titrated over a concentration range from 0.5-500 nM, and supernatants were harvested after 24 hours for measurement of IL-2 release. Units of activity were calculated as the reciprocal of the concentration of ceramide-like glycolipid required to give a half maximal release of IL-2, and all values were normalized to the activity of KRN7000 (defined as 1 Unit). The dotted line indicates the level of activity for KRN7000. The structures of two ceramide-like glycolipids with markedly elevated activity relative to KRN7000 are shown.
The ability of the compounds to activate NK T cell hybridomas in the presence of various types of cells expressing CD1d reported in FIG. 5A was determined using a murine NK T cell hybridoma stimulation assay. […] Relative potencies of the ceramide-like glycolipids were calculated from the reciprocal effective concentrations at half-maximal response (1/EC50), and expressed as units by normalization to the observed potency for KRN7000.
IL-2 production by NK T hybridoma DN32D3 in response to eight selected ceramide-like glycolipids, was determined using three different cell types as antigen presenting cells. […]

[5] = test system: NK T hybridoma DN32.D3; experiment: Murine NK T cell hybridoma stimulation assay (IL-2 release), HeLa.hCD1d as APC; type: cell-based, mouse
Experimental: (§1) The ability of the compounds to activate NK T cell hybridomas in the presence of various types of cells expressing CD1d reported in FIG. 5A was determined using a murine NK T cell hybridoma stimulation assay. CD1d-transfected RMA-S cells were plated at 50,000 cells/well in flat-bottom tissue culture plates in 100 microliters complete medium containing varying concentrations of ceramide-like glycolipids for 6 h at 37° C. The plates were then centrifuged (430 g, 3 min), and cells washed with PBS three times. Fifty thousand NKT hybridoma cells (clone DN3A4.1-2) were then added in 100 microliters of medium for a 12 h stimulation. Cell-free supernatants were collected at the end of incubation and assayed for IL-2 by standard capture ELISA. Relative potencies of the ceramide-like glycolipids were calculated from the reciprocal effective concentrations at half-maximal response (1/EC50), and expressed as units by normalization to the observed potency for KRN7000.
(§2) IL-2 production by NK T hybridoma DN32D3 in response to eight selected ceramide-like glycolipids, was determined using three different cell types as antigen presenting cells. RMA-S.mCD1d are a mouse lymphoma line that has been transfected to express murine CD1d. JAWS II is a mouse dendritic cell line that naturally expresses mouse CD1d. HeLa.hCD1d is a human cervical carcinoma cell line that has been transfected to express human CD1d. […]

[6] = test system: NK T hybridoma DN32.D3; experiment: Murine NK T cell hybridoma stimulation assay (IL-2 release), JAWS II as APC; type: cell-based, mouse; settings: dendritic cell line JAWS-II as antigen presenting cell
Experimental: as §1, §2

[7] = test system: NOD mice; experiment: Prevention of type 1 diabetes in NOD mice; type: in vivo; settings: i.p. once per week, 200 micrograms/kg; comparator DB01-1 (indicated as KRN7000)
Experimental: Cohorts of 6-8 female NOD mice were treated with placebo (vehicle) or DB01-1 (indicated as KRN7000), DB03-4 or DB03-5 injections once weekly beginning at 4-5 weeks of age. Treatment was discontinued after 5 injections (DB03-4) or 7 injections (DB03-5). Top graphs show incidence of glycosuria, and bottom graphs show survival in each cohort.
Given the widely held belief that selective augmentation of IL-4 production can be protective or therapeutic in the setting of many autoimmune diseases, we have initiated studies to examine the efficacy of compounds such as DB03-4 and DB03-5 in diabetes prone NOD mice. […] The results reported in FIG. 10 were obtained by treating three groups, each consisting of 9-12 female NOD mice, starting from age 5 weeks with a ceramide-like glycolipid. The indicated ceramide-like glycolipids (DB03-4, DB03-5, or KRN7000) were injected i.p. once per week in a dose of 200 micrograms/kg. Treatment was discontinued at 11 weeks of age, and the mice were monitored weekly for glucosuria (top) and death (bottom).
For experiments involving in vivo treatment of mice with the ceramide-like glycolipids, the ceramide-like glycolipids were administered by i.p. or i.v. injection in 0.2 ml PBS+0.025% Tween-20, or in vehicle alone. A typical dose is about 4-5 nmoles per animal per injection. […]

[8] = test system: human NKT cell clones; experiment: Human in vitro NKT cell assay system; type: cell-based; settings: proliferative responses and cytokine secretion
Excerpt: For example, DB03-4 and DB03-5 are active in stimulation of human NKT cell clones in vitro, and elicits proliferative responses and cytokine secretion when evaluated using culture systems previously established in the literature (See, e.g., Spada F M, Sugita M, Watts G F M, Koezuka Y, and Porcelli S A. Low expression but potent antigen presenting function of CD1d on monocyte lineage cells, Eur. J. Immunol., 30:3468-3477 (2000), and Spada F M, Koezuka Y, Porcelli S A, CD1d-restricted recognition of synthetic glycolipid antigens by human NK T cells. J Exp Med; 188:1529-1534 (1998), see also, Lee P T et al., J Clin Invest., 2002 September; 110(6):793-800. […] Acad. Sci. (USA), 102:3383-8 (2005)).

[9] = test system: T cell antigen receptors of human NKT cells; experiment: Glycolipid human CD1d tetramer binding; settings: normal blood specimens
[10] = test system: C57BL/6 mice; experiment: Serum IL-4 and IFNγ after a single i.p. injection; type: in vivo
Experimental: Serum levels of L-4 and IFNγ after a single injection of DB01-1, DB03-4, or DB03-5 are shown. C57BL/6 mice (11-13 weeks old) were given a single i.p. injection of 4.8 nanomoles of the compounds or phosphate buffered saline (PBS)/vehicle control. Serum cytokine levels were measured 2 and 20 hours later by capture ELISA. Bars show means of three mice, with standard deviation. Note that DB01-1 has nearly identical structure to KRN7000 (C24 fatty acid as compared to C26) and has activity that is indistinguishable from KRN7000 in multiple bioassays. We use DB01-1 as a “KRN7000 mimic” because it has been synthesized by our group and is readily available for our studies, and KRN7000 was unavailable due to license restrictions.
A most intriguing property of KRN7000 analogues is that in some cases they may elicit immune responses that are qualitatively different from those that occur following stimulation with the parent compound. […] This selective activation of IL-4 production by NK T cells was proposed to be the basis for the enhanced therapeutic effects of OCH in the EAE model of central nervous system autoimmune disease. We have observed a similar in vivo effect on the nature of the NK T cell response using several of our ceramide-like glycolipids. […] These responses are similar to those seen for DB01-1, an analogue that is structurally almost identical to KRN7000 (C24 fatty acid instead of C26, otherwise identical) and indistinguishable in terms of its activity in our hands. […] This selective IL-4 induction is virtually identical to that reported for the OCH analogue, and thus illustrates the potential for amino substituted analogues of KRN7000 to induce qualitatively different immunomodulatory effects in vivo. The results reported in FIG. 9 were obtained by measuring serum levels of IL-4 and IFNγ after administering a single injection of […], DB03-4, or DB03-5 to C57BL/6 mice. C57BL/6 mice (11-13 weeks old) were given a single i.p. injection of 4.8 nanomoles of the ceramide-like glycolipids or PBS/vehicle control. Serum cytokine levels were measured 2 and 20 hours later by capture ELISA. Bars show means of three mice, with standard deviation.
For experiments involving in vivo treatment of mice with the ceramide-like glycolipids, the ceramide-like glycolipids were administered by i.p. or i.v. injection in 0.2 ml PBS+0.025% Tween-20, or in vehicle alone. A typical dose is about 4-5 nmoles per animal per injection. Representative references for administering an α-galactosyl ceramide to mice by i.p., i.v. or p.o. routes are S. Sharif et al., Activation of natural killer T cells by alpha-galactosylceramide treatment prevents the onset and recurrence of autoimmune Type 1 diabetes, Nat. Med., Sep. 7, 2001, (9):1057-62 and K. Miyamoto et al., A synthetic glycolipid prevents autoimmune encephalomyelitis by inducing TH2 bias of natural killer T cells, Nature. Oct. 4, 2001, 413(6855):5314.

[11] = test system: mice; settings: administered in vivo to mice; cited from earlier work
[12] = test system: mouse model of experimental allergic encephalomyelitis (EAE); settings: compared with KRN7000; cited from earlier work
[13] = test system: splenocyte cultures; experiment: Splenocyte cultures (DB03-6); type: cell-based
[14] = test system: Bulk splenocytes from C57BL/6 mice; experiment: Cytokine response of splenocyte cultures (IL-4 and IFNγ ELISA); type: cell-based; set-up: IL-4 levels compared with DB01-1: dose or concentration left out as unconfirmed; settings: in vitro splenocyte cultures
[15] = test system: Bulk splenocytes from C57BL/6 mice; experiment: Splenocyte proliferation assay (3H-thymidine incorporation); type: cell-based; settings: FIG. 5D
Experimental: The results were obtained using a splenocyte proliferation assay according to the following procedure: Bulk splenocytes from C57BL/6 mice were plated at 300,000 per well in 96-well flat-bottom tissue culture plates with the indicated ceramide-like glycolipid diluted in complete medium to the concentrations shown. After 48 h at 37° C., the plate wells were pulsed with 20 microliters of medium containing 50 microCi/ml ^3H-thymidine and incubated for a further 18 h. Cell proliferation was estimated by harvesting pulsed cells onto 96-well filtermats and scintillation counting on a 1450 Microbeta Trilux instrument (Wallac/Perkin Elmer, Boston, Mass.).

SMILES: CCCCCCCCCCCCCC[C@@H](O)[C@@H](O)[C@H](COC1OC(CO)C(O)C(O)C1O)NC(=O)CCCCCC (stereo partly shown) [YTC03-25]
- effectiveness of compound [1]: Particularly effective
- IL-4 induction relative to IFNγ [2]: enhanced IL-4 induction relative to IFNγ

SMILES: CCCCCCCCCCCCCC[C@@H](O)[C@@H](O)[C@H](COC1OC(CO)C(O)C(O)C1O)NC(=O)C(c1ccccc1)c1ccccc1 (stereo partly shown) [YTC03-17]
- agonist activity on iNKT cells ([3]; in vitro): strong agonist activity
- in vitro activity at modulating cytokines [3]: show in vitro activity
- potency relative to KRN7000 (IL-2 production) [4]: markedly more potent than KRN7000
- effectiveness of compound [1]: Particularly effective
- potency relative to KRN7000 (IL-2 production) ([5]; presented by HeLa (human CD1d) cells): presented about equally
- response (IL-2 production) [6]: very little or no response at all

SMILES: CCCCC/C=C\C/C=C\C/C=C\C/C=C\CCCC(=O)N[C@@H](COC1OC(CO)C(O)C(O)C1O)[C@H](O)[C@H](O)CCCCCCCCCCCCCC (stereo partly shown) [DB03-5]
- prevention of diabetes in NOD mice compared with KRN7000 [7]: superior to KRN7000
- cytokine bias [3]: bias towards inducing Type 2 cytokines
- IL-4 induction ([3]; in vitro): strong inducers of IL-4
- IFNγ induction ([3]; in vitro, DB03-3: in some murine strains): blunted IFNγ
- in vitro activity at modulating cytokines [3]: show in vitro activity
- stimulation of human NKT cell clones [8]: active
- binding of glycolipid human CD1d tetramers to human NKT cells [9]: bind strongly
- serum IFNγ response ([10]; 20 hours after single i.p. injection of 4.8 nanomoles): not seen
- serum IL-4 response ([10]; two hours after single i.p. injection of 4.8 nanomoles): strong IL-4 response

SMILES: CCCCCCCCCCCCCCCCCCCCCCCC(=O)N[C@@H](COC1OC(CO)C(O)C(O)C1O)[C@H](O)[C@H](O)CCCCC (stereo partly shown) [OCH]
- IFNγ production in vivo [11]: failed to stimulate the strong production of interferon-γ
- IL-4 production in vivo [11]: selective production of interleukin-4
- suppression of autoimmunity in EAE [12]: enhanced ability to suppress autoimmunity

SMILES: CC/C=C\C/C=C\C/C=C\C/C=C\C/C=C\CCCC(=O)N[C@@H](COC1OC(CO)C(O)C(O)C1O)[C@H](O)[C@H](O)CCCCCCCCCCCCCC (stereo partly shown) [DB03-6]
- IL-2 induction [13]: minimal IL-2 induction
- IL-4 relative to IFNγ [13]: apparent enhancement of IL-4 relative to IFNγ
- agonist activity [13]: agonist

SMILES: CCCCCCCCCCCCCCCCCCCCCCCC(=O)N[C@@H](COC1OC(CO)C(O)C(O)C1O)[C@H](O)[C@H](O)CCCCCCCCCCCCCC (stereo partly shown) [DB02-1]
- IL-4 levels compared with DB01-1 [14]: nearly equivalent
- IFNγ levels compared with DB01-1 ([14]; all concentrations): markedly lower
- CD1d-dependent proliferation [15]: stimulation of CD1d-dependent proliferation

SMILES: CCCCCCCCCCCCCC[C@@H](O)[C@@H](O)[C@H](COC1OC(CO)C(O)C(O)C1O)NC(=O)Cc1ccc(F)cc1 (stereo partly shown) [YTC03-30]
- potency greater than KRN7000 ([5]; presented by HeLa cells): at least 100 fold

SMILES: CCCCCCCCCCCCCC[C@@H](O)[C@@H](O)[C@H](COC1OC(CO)C(O)C(O)C1O)NC(=O)Cc1ccc(OC)c(OC)c1 (stereo partly shown) [YTC03-24]
- IL-4 induction relative to IFNγ [2]: enhanced IL-4 induction relative to IFNγ
